Biological target: human plasma kallikrein (Homo sapiens (Human), UniProt P03952)
Assay: Plasma Kallikrein Activity Assay (chromogenic substrate S2302)
Type: biochemical
Settings: 2 nM kallikrein, 80 μM S2302, 30° C., pH 7.8; Cheng-Prusoff
Procedure: Plasma Kallikrein Activity Assay.
The effect of compounds of the invention on human plasma kallikrein activity was determined using the chromogenic substrates (DiaPharma Group, Inc., West Chester, Ohio, USA). In these experiments, 2 nM kallikrein (Enzyme Research Laboratories, South Bend, Ind., USA) was incubated with 80 μM S2302 (H-D-Pro-Phe-Arg-p-nitroaniline) in the absence or presence of increasing concentrations of compounds of the invention in a final volume of 200 μL Tris-HCl buffer (200 mM NaCl; 2.5 mM CaCl2; 50 mM Tris-HCl, pH 7.8).
After incubation at 30° C., the activity of kallikrein was measured as a change in absorbance at OD 405 nm using BioTek PowerWave X340 Microplate Reader (Winooski, Vt., USA). Data were analyzed using SigmaPlot software (Systat Software, Inc., San Jose, Calif., USA) (Four Parameter Logistic Curve). Ki values for the inhibitors were determined using the Cheng-Prusoff equation (Biochem. Pharmacol. 1973, 22, 3099).

Chain of human plasma kallikrein (P03952 391-638): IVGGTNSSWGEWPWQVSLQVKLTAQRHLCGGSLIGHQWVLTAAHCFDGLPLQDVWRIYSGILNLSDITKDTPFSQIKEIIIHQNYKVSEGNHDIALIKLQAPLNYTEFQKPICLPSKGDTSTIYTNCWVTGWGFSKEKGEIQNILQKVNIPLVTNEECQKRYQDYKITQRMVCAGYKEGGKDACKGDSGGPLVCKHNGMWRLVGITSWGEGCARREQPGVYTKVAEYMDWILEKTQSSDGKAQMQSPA
Chain of human plasma kallikrein (P03952 20-390 partner): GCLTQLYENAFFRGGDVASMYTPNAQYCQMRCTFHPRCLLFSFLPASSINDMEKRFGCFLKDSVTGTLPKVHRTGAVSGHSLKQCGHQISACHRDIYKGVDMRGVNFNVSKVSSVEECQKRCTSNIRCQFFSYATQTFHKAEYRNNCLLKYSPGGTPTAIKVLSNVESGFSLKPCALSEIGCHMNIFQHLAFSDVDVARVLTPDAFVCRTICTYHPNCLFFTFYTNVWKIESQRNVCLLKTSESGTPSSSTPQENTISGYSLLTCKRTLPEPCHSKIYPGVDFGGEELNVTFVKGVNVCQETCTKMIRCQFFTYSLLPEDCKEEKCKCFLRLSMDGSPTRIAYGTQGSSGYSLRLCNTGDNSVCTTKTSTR

| Compound | Ki |
| --- | --- |
| N#Cc1cccc(C(N)(CCC2CC2)c2ccc(F)c(NC(=O)[C@H]3C[C@](O)(c4ccccc4)CN3C(=O)Nc3ccc(Cl)cn3)c2)c1 (stereo partly drawn) [Compound 29e, (2R,4S)-N2-(5-((+)-1-amino-1-(3-cyanophenyl)-3-cyclopropylpropyl)-2-fluorophenyl)-N1-(5-chloropyridin-2-yl)-4-hydroxy-4-phenylpyrrolidine-1,2-dicarboxamide] | < 50 nM |
| N#Cc1cccc(C(N)(CCC2CC2)c2ccc(F)c(NC(=O)[C@H]3C[C@](O)(c4ccccc4)CN3C(=O)Nc3ccc(Cl)cc3)c2)c1 (stereo partly drawn) [Compound 30a, (2R,4S)-N2-(5-((+)-1-amino-1-(3-cyanophenyl)-3-cyclopropylpropyl)-2-fluorophenyl)-N1-(4-chlorophenyl)-4-hydroxy-4-phenylpyrrolidine-1,2-dicarboxamide] | < 50 nM |
| N#Cc1cccc(C(CCC2CC2)(NC(=O)Nc2ccc(Cl)cc2)c2ccc(F)c(NC(=O)[C@H]3C[C@](O)(c4ccccc4)CN3C(=O)Nc3ccc(Cl)cc3)c2)c1 (stereo partly drawn) [Compound 30b, (2R,4S)-N1-(4-chlorophenyl)-N2-(5-((+)-1-(3-(4-chlorophenyl)ureido)-1-(3-cyanophenyl)-3-cyclopropylpropyl)-2-fluorophenyl)-4-hydroxy-4-phenylpyrrolidine-1,2-dicarboxamide] | 50 to 100 nM |
| NC(CCC1CC1)(c1ccc(F)c(NC(=O)[C@H]2C[C@](O)(c3ccccc3)CN2C(=O)Nc2ccc(Cl)cc2)c1)c1ccccn1 (stereo partly drawn) [Compound 31i, (2R,4S)-N2-(5-((−)-1-amino-3-cyclopropyl-1-(pyridin-2-yl)propyl)-2-fluorophenyl)-N1-(4-chlorophenyl)-4-hydroxy-4-phenylpyrrolidine-1,2-dicarboxamide] | < 50 nM |
| NC(CCC1CC1)(c1ccc(F)c(NC(=O)[C@H]2C[C@](O)(c3ccccc3)CN2C(=O)Nc2ccc(Cl)cn2)c1)c1ccccn1 (stereo partly drawn) [Compound 32a, (2R,4S)-N2-(5-((+)-1-amino-3-cyclopropyl-1-(pyridin-2-yl)propyl)-2-fluorophenyl)-N1-(5-chloropyridin-2-yl)-4-hydroxy-4-phenylpyrrolidine-1,2-dicarboxamide] | < 50 nM |
| O=C(Nc1ccc(Cl)cn1)NC(CCC1CC1)(c1ccc(F)c(NC(=O)[C@H]2C[C@](O)(c3ccccc3)CN2C(=O)Nc2ccc(Cl)cn2)c1)c1ccccn1 (stereo partly drawn) [Compound 32b, (2R,4S)-N1-(5-chloropyridin-2-yl)-N2-(5-(1-(3-(5-chloropyridin-2-yl)ureido)-3-cyclopropyl-1-(pyridin-2-yl)propyl)-2-fluorophenyl)-4-hydroxy-4-phenylpyrrolidine-1,2-dicarboxamide] | > 100 nM |
| CC(C)(C)[S@@+]([O-])NC(CCC1CC1)(c1cccc(C#N)c1)c1ccc(F)c(NC(=O)[C@H]2C[C@H](N=[N+]=[N-])CN2C(=O)Nc2ccc(Cl)cc2)c1 (stereo partly drawn) [Compound 33b, (2R,4S)-4-azido-N1-(4-chlorophenyl)-N2-(5-((+)-1-(3-cyanophenyl)-3-cyclopropyl-1-((R)-1,1-dimethylethylsulfinamido)propyl)-2-fluorophenyl)pyrrolidine-1,2-dicarboxamide] | > 100 nM |
| N#Cc1cccc(C(N)(CCC2CC2)c2ccc(F)c(NC(=O)[C@H]3C[C@H](N)CN3C(=O)Nc3ccc(Cl)cc3)c2)c1 (stereo partly drawn) [Compound 33d, (2R,4S)-4-amino-N2-(5-((+)-1-amino-1-(3-cyanophenyl)-3-cyclopropylpropyl)-2-fluorophenyl)-N1-(4-chlorophenyl)pyrrolidine-1,2-dicarboxamide] | > 100 nM |
| CO[C@]1(c2ccccc2)C[C@H](C(=O)Nc2cc(C(CCC3CC3)(N[S@@+]([O-])C(C)(C)C)c3ccccn3)ccc2F)N(C(=O)OC(C)(C)C)C1 (stereo partly drawn) [Compound 34b, (2R,4S)-tert-butyl-2-(5-((+)-3-cyclopropyl-1-((S)-1,1-dimethylethylsulfinamido)-1-(pyridin-2-yl)propyl)-2-fluorophenylcarbamoyl)-4-methoxy-4-phenylpyrrolidine-1-carboxylate] | > 100 nM |
| CO[C@]1(c2ccccc2)C[C@H](C(=O)Nc2cc(C(N)(CCC3CC3)c3ccccn3)ccc2F)N(C(=O)Nc2ccc(Cl)cc2)C1 (stereo partly drawn) [Compound 34d, (2R,4S)-N2-(5-((+)-1-amino-3-cyclopropyl-1-(pyridin-2-yl)propyl)-2-fluorophenyl)-N1-(4-chlorophenyl)-4-methoxy-4-phenylpyrrolidine-1,2-dicarboxamide] | < 50 nM |
| CO[C@]1(c2ccccc2)C[C@H](C(=O)Nc2cc(C(N)(CCC3CC3)c3ccccn3)ccc2F)N(C(=O)Nc2ccc(Cl)cn2)C1 (stereo partly drawn) [Compound 35a, (2R,4S)-N2-(5-((+)-1-amino-3-cyclopropyl-1-(pyridin-2-yl)propyl)-2-fluorophenyl)-N1-(5-chloropyridin-2-yl)-4-methoxy-4-phenylpyrrolidine-1,2-dicarboxamide] | 50 to 100 nM |
| CO[C@@H]1C[C@H](C(=O)Nc2cc(C(N)(CCC3CC3)c3ccccn3)ccc2F)N(C(=O)Nc2ccc(Cl)cn2)C1 (stereo partly drawn) [Compound 36d, (2R,4R)-N2-(5-((+)-1-amino-3-cyclopropyl-1-(pyridin-2-yl)propyl)-2-fluorophenyl)-N1-(5-chloropyridin-2-yl)-4-methoxypyrrolidine-1,2-dicarboxamide] | > 100 nM |
| CO[C@@H]1C[C@H](C(=O)Nc2cc(C(N)(CCC3CC3)c3ccccn3)ccc2F)N(C(=O)Nc2ccc(Cl)cn2)C1 (stereo partly drawn) [Compound 37d, (2R,4R)-N2-(5-((+)-1-amino-3-cyclopropyl-1-(pyridin-2-yl)propyl)-2-fluorophenyl)-N1-(5-chloropyridin-2-yl)-4-methoxypyrrolidine-1,2-dicarboxamide] | < 50 nM |
| CCC1(O)C[C@H](C(=O)Nc2cc(C(N)(CCC3CC3)c3ccccn3)ccc2F)N(C(=O)Nc2ccc(Cl)cn2)C1 (stereo partly drawn) [Compound 38d, (2R)-N2-(5-((+)-1-amino-3-cyclopropyl-1-(pyridin-2-yl)propyl)-2-fluorophenyl)-N1-(5-chloropyridin-2-yl)-4-ethyl-4-hydroxypyrrolidine-1,2-dicarboxamide] | < 50 nM |
| NC(CCC1CC1)(c1ccncc1)c1ccc(F)c(NC(=O)[C@H]2C[C@](O)(c3ccccc3)CN2C(=O)Nc2ccc(Cl)cn2)c1 (stereo partly drawn) [Compound 39h, (2R,4S)-N2-(5-((+)-1-amino-3-cyclopropyl-1-(pyridin-4-yl)propyl)-2-fluorophenyl)-N1-(5-chloropyridin-2-yl)-4-hydroxy-4-phenylpyrrolidine-1,2-dicarboxamide] | < 50 nM |
| NC(CCC1CC1)(c1ccncc1)c1ccc(F)c(NC(=O)[C@H]2C[C@](O)(c3ccccc3)CN2C(=O)Nc2ccc(Cl)cc2)c1 (stereo partly drawn) [Compound 40a, (2R,4S)-N2-(5-((+)-1-amino-3-cyclopropyl-1-(pyridin-4-yl)propyl)-2-fluorophenyl)-N1-(4-chlorophenyl)-4-hydroxy-4-phenylpyrrolidine-1,2-dicarboxamide] | < 50 nM |
| CNC(CCC1CC1)(c1ccncc1)c1ccc(F)c(NC(=O)[C@H]2C[C@](O)(c3ccccc3)CN2C(=O)Nc2ccc(Cl)cn2)c1 (stereo partly drawn) [Compound 41a, (2R,4S)-N1-(5-chloropyridin-2-yl)-N2-(5-((+)-3-cyclopropyl-1-(methylamino)-1-(pyridin-4-yl)propyl)-2-fluorophenyl)-4-hydroxy-4-phenylpyrrolidine-1,2-dicarboxamide] | < 50 nM |
| CO[C@@H]1C[C@H](C(=O)Nc2cc(C(CCC3CC3)n3ccccc3=O)ccc2F)N(C(=O)Nc2ccc(Cl)cn2)C1 (stereo partly drawn) [Compound 42l, (2R,4R)-N1-(5-chloropyridin-2-yl)-N2-(5-(3-cyclopropyl-1-(2-oxopyridin-1(2H)-yl)propyl)-2-fluorophenyl)-4-methoxypyrrolidine-1,2-dicarboxamide] | < 50 nM |
| CO[C@@H]1C[C@H](C(=O)Nc2cc(C(CCC3CC3)n3ccccc3=O)ccc2F)N(C(=O)Nc2ccc(Cl)cn2)C1 (stereo partly drawn) [Compound 43m, (2R,4R)-N1-(5-chloropyridin-2-yl)-N2-(5-((+)-3-cyclopropyl-1-(2-oxopyridin-1(2H)-yl)propyl)-2-fluorophenyl)-4-methoxypyrrolidine-1,2-dicarboxamide] | 50 to 100 nM |
| CO[C@@H]1C[C@H](C(=O)Nc2cc(C(CCC3CC3)N3CCCCC3=O)ccc2F)N(C(=O)Nc2ccc(Cl)cn2)C1 (stereo partly drawn) [Compound 44e, (2R,4R)-N1-(5-chloropyridin-2-yl)-N2-(5-((+)-3-cyclopropyl-1-(2-oxopiperidin-1-yl)propyl)-2-fluorophenyl)-4-methoxypyrrolidine-1,2-dicarboxamide] | > 100 nM |
| CO[C@]1(c2ccccc2)C[C@H](C(=O)Nc2cc(C(N)(CCC3CC3)c3ccncc3)ccc2F)N(C(=O)Nc2ccc(Cl)cn2)C1 (stereo partly drawn) [Compound 45c, (2R,4S)-N2-(5-((+)-1-amino-3-cyclopropyl-1-(pyridin-4-yl)propyl)-2-fluorophenyl)-N1-(5-chloropyridin-2-yl)-4-methoxy-4-phenylpyrrolidine-1,2-dicarboxamide] | > 100 nM |
| CO[C@@H]1C[C@H](C(=O)Nc2cc(C(N)(CCC3CC3)c3ccnc(C)c3)ccc2F)N(C(=O)Nc2ccc(Cl)cn2)C1 (stereo partly drawn) [Compound 46k, (2R,4R)-N2-(5-((+)-1-amino-3-cyclopropyl-1-(2-methylpyridin-4-yl)propyl)-2-fluorophenyl)-N1-(5-chloropyridin-2-yl)-4-methoxypyrrolidine-1,2-dicarboxamide] | < 50 nM |
| NC(CCC1CC1)(c1ccncc1)c1ccc(F)c(NC(=O)[C@H]2C[C@H](c3ccccc3)CN2C(=O)Nc2ccc(Cl)cn2)c1 (stereo partly drawn) [Compound 47d, (2R,4R)-N2-(5-((+)-1-amino-3-cyclopropyl-1-(pyridin-4-yl)propyl)-2-fluorophenyl)-N1-(5-chloropyridin-2-yl)-4-phenylpyrrolidine-1,2-dicarboxamide] | 50 to 100 nM |

Reference: patent US10562850B2, “Human plasma kallikrein inhibitors” (priority 2015, dated 2020)
